Data as given in patent publication EP3623369A1, “NOVEL MORPHOLINYL AMINE COMPOUNDS FOR THE TREATMENT OF AUTOIMMUNE DISEASE” (F. Hoffmann-La Roche AG, priority 2018, dated 2020).

Assays:
[1] = target: T1, hTLR7 (Homo sapiens, UniProt Q9NYK1); design: host or cells: HEK; conditions: data disclosed in US20150105370; read-out: HEK/hTLR7 IC50; cited from earlier work
T1 sequence (Q9NYK1 27-1049): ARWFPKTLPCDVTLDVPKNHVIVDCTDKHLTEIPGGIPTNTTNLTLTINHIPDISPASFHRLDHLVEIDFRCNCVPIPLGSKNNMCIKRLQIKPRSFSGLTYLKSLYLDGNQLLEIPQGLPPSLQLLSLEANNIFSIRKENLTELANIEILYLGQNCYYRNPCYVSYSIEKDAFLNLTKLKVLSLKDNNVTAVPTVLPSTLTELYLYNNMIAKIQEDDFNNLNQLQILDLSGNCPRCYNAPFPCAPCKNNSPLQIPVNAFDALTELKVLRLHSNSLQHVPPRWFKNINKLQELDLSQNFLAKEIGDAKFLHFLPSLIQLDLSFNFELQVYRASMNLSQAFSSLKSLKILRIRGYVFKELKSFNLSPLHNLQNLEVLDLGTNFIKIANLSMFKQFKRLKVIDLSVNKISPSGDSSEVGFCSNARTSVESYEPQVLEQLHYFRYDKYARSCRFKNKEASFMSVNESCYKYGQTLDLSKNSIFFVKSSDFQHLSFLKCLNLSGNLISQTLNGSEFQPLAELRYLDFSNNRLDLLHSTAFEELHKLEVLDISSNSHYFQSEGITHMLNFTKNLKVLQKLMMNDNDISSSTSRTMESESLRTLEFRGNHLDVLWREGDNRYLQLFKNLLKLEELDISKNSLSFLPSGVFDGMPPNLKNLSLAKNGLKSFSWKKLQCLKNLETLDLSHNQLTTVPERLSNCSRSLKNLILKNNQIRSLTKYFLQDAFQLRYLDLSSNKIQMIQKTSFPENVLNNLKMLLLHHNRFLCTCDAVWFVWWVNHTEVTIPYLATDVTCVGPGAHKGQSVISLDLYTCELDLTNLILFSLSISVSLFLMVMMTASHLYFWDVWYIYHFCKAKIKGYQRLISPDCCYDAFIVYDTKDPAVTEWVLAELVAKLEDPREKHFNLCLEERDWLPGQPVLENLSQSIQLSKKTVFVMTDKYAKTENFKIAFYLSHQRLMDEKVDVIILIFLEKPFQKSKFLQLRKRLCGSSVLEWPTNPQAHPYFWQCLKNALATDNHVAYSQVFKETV

[2] = target: T2, hTLR9 (Homo sapiens, UniProt Q9NR96); design: host or cells: HEK; conditions: data disclosed in US20150105370; read-out: HEK/hTLR9 IC50; cited from earlier work
T2 sequence (Q9NR96 26-1032): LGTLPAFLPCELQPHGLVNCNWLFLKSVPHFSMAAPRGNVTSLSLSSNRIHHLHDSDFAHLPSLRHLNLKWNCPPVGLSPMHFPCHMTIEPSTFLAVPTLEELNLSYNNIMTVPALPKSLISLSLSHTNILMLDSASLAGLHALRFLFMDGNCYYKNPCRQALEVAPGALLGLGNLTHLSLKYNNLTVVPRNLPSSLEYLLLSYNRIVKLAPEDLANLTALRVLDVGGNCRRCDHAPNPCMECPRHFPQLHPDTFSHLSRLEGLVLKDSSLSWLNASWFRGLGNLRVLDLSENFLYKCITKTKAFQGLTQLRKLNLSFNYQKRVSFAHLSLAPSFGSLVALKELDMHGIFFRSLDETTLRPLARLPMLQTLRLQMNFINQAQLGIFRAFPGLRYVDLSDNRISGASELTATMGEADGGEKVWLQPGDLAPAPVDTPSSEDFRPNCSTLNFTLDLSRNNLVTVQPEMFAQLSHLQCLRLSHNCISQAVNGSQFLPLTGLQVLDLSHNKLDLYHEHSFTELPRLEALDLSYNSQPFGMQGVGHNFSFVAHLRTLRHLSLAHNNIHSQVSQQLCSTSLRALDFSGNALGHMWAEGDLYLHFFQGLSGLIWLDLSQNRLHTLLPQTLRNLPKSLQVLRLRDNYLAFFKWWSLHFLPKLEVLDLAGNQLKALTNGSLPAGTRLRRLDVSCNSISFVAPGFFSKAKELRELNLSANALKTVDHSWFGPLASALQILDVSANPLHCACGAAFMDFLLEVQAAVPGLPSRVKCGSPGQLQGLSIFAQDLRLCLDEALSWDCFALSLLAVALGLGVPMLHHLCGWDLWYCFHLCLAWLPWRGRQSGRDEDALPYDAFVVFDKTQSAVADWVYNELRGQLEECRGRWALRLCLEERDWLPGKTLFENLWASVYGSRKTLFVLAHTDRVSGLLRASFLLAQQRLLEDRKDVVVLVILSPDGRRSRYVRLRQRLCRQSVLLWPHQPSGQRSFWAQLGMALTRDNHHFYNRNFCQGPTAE

[3] = Human microsome stability assay; type: in vitro ADME; conditions: human liver microsomes, 1 µM test compound, 0.5 mg/mL protein, 37°C, up to 30 minutes
Procedure: Human microsome stability assay
The human microsomal stability assay is used for early assessment of metabolic stability of a test compound in human liver microsomes.
Human liver microsomes (Cat.NO.: 452117, Corning, USA;Cat.NO.:H2610, Xenotech, USA) were preincubated with test compound for 10 minutes at 37°C in 100 mM potassium phosphate buffer, pH 7.4. The reactions were initiated by adding NADPH regenerating system. The final incubation mixtures contained 1 µM test compound, 0.5 mg/mL liver microsomal protein, 1 mM MgCl2, 1 mM NADP, 1 unit/mL isocitric dehydrogenase and 6 mM isocitric acid in 100 mM potassium phosphate buffer, pH 7.4. After incubation times of 0, 3, 6, 9, 15 and 30 minutes at 37°C, 300 µL of cold acetonitrile (including internal standard) was added to 100 µL incubation mixture to terminate the reaction. Following precipitation and centrifugation, the amount of compound remaining in the samples were determined by LC-MS/MS. Controls of no NADPH regenerating system at zero and 30 minutes were also prepared and analyzed. […] Table 3. Human liver microsome stability of the compounds of present invention

Compound	IC50 [1] [nM]	IC50 [2] [nM]	Clearance of Human microsome [3] [mL/min/kg]
C[C@@H]1CN(c2ccc(C#N)c3ncccc23)C[C@H](CNc2ccccc2)O1 [ER-886601]	15	> 2000	
Cc1cccc(NC[C@H]2CN(c3ccc(C#N)c4ncccc34)C[C@@H](C)O2)c1 [ER-886602]	185	> 20000	
Cc1nc2cc(NC[C@H]3CN(c4ccc(C#N)c5ncccc45)C[C@@H](C)O3)ccc2n1C [ER-886608]	13	3370	
Cc1cccc(NC[C@H]2CN(c3ccc(C#N)c4ncccc34)C[C@@H](C)O2)n1 [ER-886799]	7	> 2000	
C[C@@H]1CN(c2ccc(C#N)c3nccnc23)C[C@H](CN2Cc3ccc(N4CC5CCC(C4)N5)cc3C2)O1 [Example 44, 8-[(2S,6R)-2-[[5-(3,8-diazabicyclo[3.2.1]octan-3-yl)isoindolin-2-yl]methyl]-6-methyl-morpholin-4-yl]quinoxaline-5-carbonitrile]			6.94
C[C@@H]1CN(c2ccc(C#N)c3ncccc23)C[C@H](CN2Cc3ccc(N4CCNCC4C(=O)O)cc3C2)O1 (stereo partly drawn) [Example 56, 1-[2-[[(2S,6R)-4-(8-cyano-5-quinolyl)-6-methyl-morpholin-2-yl]methyl]isoindolin-5-yl]piperazine-2-carboxylic acid]			6.51
